# Measured values reported in patent US10813939B2, “Bromodomain inhibitor as adjuvant in cancer immunotherapy” (H. LEE MOFFITT CANCER CENTER AND RESEARCH INSTITUTE, INC., priority 2014, dated 2020).
# Entries after “also recorded” stand apart in the source; their conditions may differ.
# Legend:
# Assay type in all cases: cell-based
# [1] = system: PEM; assay: PEM cell viability after 24 hours JQ1
# Experimental: In order to determine the best working concentration of JQ1 in PEM, plated PEM (96-well plate) were treated with increased concentration of JQ1 for 24 hours then cell viability was determined. A threshold of 100 to 800 nanomolar was determined to be acceptable.
# [2] = system: IL-10; assay: IL-10 production by ELISA in PEM treated with JQ1 with and without LPS; details: PEM (PEM or bone marrow derived DCs), 24 hours, supernatant ELISA
# Experimental: (§1) Macrophages (PEM) were treated with different concentrations of JQ1 in presence and absence of LPS (stimulant for macrophages). After 24 hours, supernatant was collected and IL -10 & IL-6 production was determined by ELISA.
# [3] = system: IL-6; assay: IL-6 production by ELISA in PEM treated with JQ1 with and without LPS; details: PEM (PEM or bone marrow derived DCs), 24 hours, supernatant ELISA
# Experimental: as §1
# [4] = system: IL-10; assay: IL-10 mRNA expression by real time PCR in PEM; details: PEM or DCs, increasing JQ1, LPS stimulation
# [5] = system: IL-6; assay: IL-6 mRNA expression by real time PCR in PEM; details: PEM or DCs, increasing JQ1, LPS stimulation
# [6] = system: PD-L1; assay: Flow cytometry of PEM with anti-PD-L1; details: JQ1 & LPS versus LPS alone, treated versus untreated APCs
# Experimental: (§2) PEM were treated with different concentrations of JQ1 in presence and absence of LPS. Flow cytometry was performed on PEM treated with different concentrations of JQ1 in presence and absence of LPS using anti-PD-Ll and anti-PD-L2 as well as isotype as a control.
# [7] = system: PD-L2; assay: Flow cytometry of PEM with anti-PD-L2; details: JQ1 & LPS versus LPS alone
# Experimental: as §2
# [8] = system: PD-L1; assay: PD-L1 mRNA expression by real time PCR in PEM; details: LPS+JQ1 combination
# [9] = system: Naïve CD4 T-cells; assay: JQ1-treated PEM co-cultured with naive CD4 T-cells and OVA peptide, cytokine ELISA; details: PEM treated 24 hours, co-culture 48 hours with OVA peptide
# Experimental: (§3) PEM were treated with different concentrations of JQ1 in presence and absence of LPS. After 24 hours, PEM was washed twice with warm RPMI. Naïve CD4 T-cells or tolerant T-cells were added to the plated macrophages with or without OVA peptide and co-cultured for 48 hours. IL-2 and IFN-γ production were determined by ELISA. Without OVA peptide, there was no production of IL-2 or IFN-γ.
# [10] = system: tolerant CD4+ T-cells; assay: JQ1-treated PEM co-cultured with tolerant T-cells and OVA peptide, IFN-γ ELISA; details: PEM treated with JQ1+LPS 24 hours, co-culture 48 hours with OVA peptide, tolerant CD4+ T-cells from lymphoma bearing hosts
# Experimental: as §3
smiles,measurement,setting,value
"Cc1sc2c(c1C)C(c1ccc(Cl)cc1)=N[C@@H](CC(=O)OC(C)(C)C)c1nnc(C)n1-2 [JQ1, (S)-tert-butyl 2-(4-(4-chlorophenyl)-2,3,9-trimethyl-6H-thieno[3,2-f][1,2,4]triazolo[4,3-a][1,4]diazepin-6-yl)acetate]",acceptable working concentration threshold (cell viability),"[1]; PEM, 96-well plate, 24 hours",100 to 800 nM
same,viability of treated APCs,[1]; at the concentration used (FIG. 1),did not affect the viability
same,IL-10 production,[2],decreased production
same,IL-10 production,[2]; listed as JQ 1,decreased expression and protein production
same,IL-6 production,[3],decreased production
same,IL-6 production,[3]; listed as JQ 1,decreased expression and protein production
same,IL-10 expression (mRNA),[4],decreased expression
same,IL-6 expression (mRNA),[5],decreased expression
same,PD-L1 expression (flow cytometry),[6],relatively decreased expression
same,PD-L1 expression (flow cytometry),[6]; listed as JQ 1,decreased expression; also recorded: lower expression
same,PD-L2 expression (flow cytometry),[7],relatively decreased expression
same,PDL1 mRNA expression,[8],decreased expression
same,IFN-gamma production by CD4 T-cell,[9],increase in dose dependent production
same,IL-2 production by CD4 T-cell,[9],increase in dose dependent production
same,IFN-gamma production by CD4 T-cell,[9]; listed as JQ 1,increased production
same,IL-2 production by CD4 T-cell,[9]; listed as JQ 1,increased production
same,IFN-gamma production by tolerant T-cells / responsiveness of tolerant T-cells,[10],enhanced IFN-gamma production; also recorded: restoration of tolerant T-cell function
same,IFN-gamma production by tolerant T-cells / responsiveness of tolerant T-cells,[10]; listed as JQ 1,able to restore the responsiveness; also recorded: capable of restoring the responsiveness
